Like-named read-outs stand apart in the source and are kept apart here.
How the values were obtained:
cancer cell lines = assay: cell proliferation assay ([3H]-thymidine incorporation), cancer cell lines; format: cell-based
Description: Cell Proliferation Assay. 1×10^5 of indicated cells in each well of a 96-well plate were treated with indicated compounds for 24 h followed by addition of 0.11 μCi of [^3H]-thymidine (6.7 Ci/mmol) per well for 6 h, followed by harvesting to GF/C filtermats using a cell harvester. Filtermats were air-dried and scintillation counted. IC50s were determined from quadruplicate data readings and curve-fitting analysis.

eIF4A-eIF4B = biological target: T1, eIF4A-eIF4B (Homo sapiens, UniProt P60842); assay: 6XHis-eIF4AI pulldown, eIF4A-eIF4B interaction; format: binding; details: HeLa lysate; PatA at 100 μM
T1 construct: The entire ORF of human eIF4AI was ligated in-frame into the BamHI and HindIII sites of the pET-28a expression vector; made in house; host or cells: bait from E. coli BL21(DE3); eIF4B endogenous in HeLa lysate
T1 sequence (P60842 whole entry): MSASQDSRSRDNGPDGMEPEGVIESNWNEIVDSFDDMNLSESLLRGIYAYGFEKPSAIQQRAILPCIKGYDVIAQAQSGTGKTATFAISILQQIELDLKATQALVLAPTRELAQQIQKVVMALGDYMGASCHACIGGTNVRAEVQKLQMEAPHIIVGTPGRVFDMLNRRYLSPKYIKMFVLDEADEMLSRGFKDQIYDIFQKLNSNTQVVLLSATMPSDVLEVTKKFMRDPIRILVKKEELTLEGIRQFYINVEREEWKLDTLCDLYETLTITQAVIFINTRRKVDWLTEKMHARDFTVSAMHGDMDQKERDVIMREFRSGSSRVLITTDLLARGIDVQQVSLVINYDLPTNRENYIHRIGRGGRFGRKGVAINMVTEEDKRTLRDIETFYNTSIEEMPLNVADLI
T1 sequence (P23588 whole entry partner): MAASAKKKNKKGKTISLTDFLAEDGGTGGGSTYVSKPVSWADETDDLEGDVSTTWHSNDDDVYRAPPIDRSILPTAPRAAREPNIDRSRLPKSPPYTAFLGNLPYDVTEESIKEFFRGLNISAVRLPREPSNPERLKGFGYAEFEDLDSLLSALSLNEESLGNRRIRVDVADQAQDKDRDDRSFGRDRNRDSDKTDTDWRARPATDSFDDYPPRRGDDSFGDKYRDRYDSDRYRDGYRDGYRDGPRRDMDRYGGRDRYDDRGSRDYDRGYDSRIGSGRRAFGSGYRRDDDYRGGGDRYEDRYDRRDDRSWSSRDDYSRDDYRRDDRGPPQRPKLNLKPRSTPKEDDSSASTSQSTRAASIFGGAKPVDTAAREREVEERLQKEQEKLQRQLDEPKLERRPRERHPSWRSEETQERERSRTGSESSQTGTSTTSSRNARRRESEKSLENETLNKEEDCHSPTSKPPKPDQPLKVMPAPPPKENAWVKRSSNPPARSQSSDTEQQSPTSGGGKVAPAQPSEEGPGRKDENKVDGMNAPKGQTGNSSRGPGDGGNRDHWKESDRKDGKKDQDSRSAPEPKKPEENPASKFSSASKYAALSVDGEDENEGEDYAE
Description: 6XHis-eIF4AI pulldown, Co-immunoprecipitation, and m^7GTP-Sepharose pulldown. For 6XHis-eIF4AI pulldowns, HeLa lysates were prepared as described above. Equal aliquots (200 μl) of lysate were incubated with PatA analogs or DMSO and 8.5 μg of 6XHis-eIF4AI overnight at 4° C., followed by addition of Ni-NTA resin for 1 h, then resin was washed with 3 ml buffer, and boiled in SDS-PAGE loading buffer followed by SDS-PAGE and immunoblotting with indicated antibodies. For co-immunoprecipitation, 293T cells with vector control or pcDNA3-Flag-4B lysates were prepared by pipetting in: 20 mM HEPES, pH 7.4, 100 mM KCl, 0.5% Triton-X-100, 20% glycerol, protease inhibitor and 15 μg/ml RNAse A followed by clearing at 13 000 g (10 min). For DMDA-PatA treated samples, lysis and wash buffers also contained 100 nM DMDA-PatA. Anti-Flag antibody was incubated overnight at 4° C., followed by addition of Protein G beads for 4 h. Beads were washed 3× with 500 μl buffer, boiled in SDS-PAGE loading buffer followed by SDS-PAGE and immunoblotting. m^7GTP-Sepharose was performed as described (Yoder-Hill et al., 1993) with modifications. 30 μl RRL was incubated with DMSO or DMDA-PatA at room temperature for 30 min, diluted with buffer supplemented with DMSO or DMDA-PatA (20 nM), then combined with 50 μl beads for 3 h at 4° C. followed by 4 washes with 1 ml buffer. […]

stability in CDCl3 = format: physicochemical; details: CDCl3, 25° C.
[1] = system: RNA synthesis in HeLa S3 cells; assay: metabolic labelling, RNA synthesis ([3H]-uridine); format: cell-based
Description: (§1) Metabolic Labelling. About 5000 HeLa S3 cells per well in 96-well plates were cultured overnight in duplicate. One set of plates were washed twice with, then incubated for 20 min in Met and Cys free medium, then exchanged for labeling medium (RPMI 1640 with 10% FBS dialyzed in PBS overnight, and 0.15 mCi/ml [^35S]-Met and [^35S]-Cys) with indicated compounds and final volume of 100 μl per well. After 1 h or 3 h incubation, and two washes with ice-cold PBS, cells were lysed in RIPA buffer, under agitation for 30 min at 4° C. 5 μl of lysate from each well was combined with 25 μl of 1 mg/ml BSA, and added to 96 well plates, followed by addition of 150 μl of 5% TCA in ethanol and incubated at 4° C. for 30 min. Filtration was performed on a vacuum manifold as per manufacturer's instructions with 2 washes of 5% TCA in ethanol, then twice with 100% ethanol. After air-drying, scintillation counting was performed. For the second set, replacement media contained […] [^3H]-uridine and indicated compound, and incubated for 1 or 3 h. Remaining procedure was identical to cell proliferation assay.

[2] = system: protein synthesis in HeLa S3 cells; assay: metabolic labelling, protein synthesis ([35S]-methionine/cysteine); format: cell-based
Description: as §1

[3] = system: IL-2 promoter luciferase reporter in stimulated Jurkat T cells; assay: IL-2 reporter gene assay (transfected Jurkat cells); format: cell-based
Description: The ability of these derivatives to inhibit T cell receptor-mediated IL-2 production was analyzed using an IL-2 reporter gene assay. In this assay, a plasmid encoding a reporter gene (luciferase) under the control of the IL-2 promoter was first introduced into Jurkat T cells by transfection. The transfected Jurkat T cells are then stimulated with two pharmacological agents, phorbol myristyl acetate (PMA), which activates protein kinase C, and inonmycin, which allows calcium ion to enter T cells to activate calmodulin and calcineurin. Together, PMA and ionomycin recapitulate T cell receptor signaling, leading to the activation of the luciferase reporter gene by activating the IL-2 promoter. The ability of PatA and its analogs to block T cell receptor-mediated IL-2 expression was measured by their effects on this reporter gene assay. Su, B., et a., Cell 1994, 77, 727-736.

eIF4A = biological target: T2, eIF4A (Homo sapiens, UniProt P60842); assay: B-PatA streptavidin pull-down competition; format: binding; details: RKO cell lysate, pre-incubation with competitor
T2 construct: Cell lysates from RKO cells were prepared as previously described; endogenous in cells; host or cells: RKO cell lysate
T2 sequence (P60842 2-406): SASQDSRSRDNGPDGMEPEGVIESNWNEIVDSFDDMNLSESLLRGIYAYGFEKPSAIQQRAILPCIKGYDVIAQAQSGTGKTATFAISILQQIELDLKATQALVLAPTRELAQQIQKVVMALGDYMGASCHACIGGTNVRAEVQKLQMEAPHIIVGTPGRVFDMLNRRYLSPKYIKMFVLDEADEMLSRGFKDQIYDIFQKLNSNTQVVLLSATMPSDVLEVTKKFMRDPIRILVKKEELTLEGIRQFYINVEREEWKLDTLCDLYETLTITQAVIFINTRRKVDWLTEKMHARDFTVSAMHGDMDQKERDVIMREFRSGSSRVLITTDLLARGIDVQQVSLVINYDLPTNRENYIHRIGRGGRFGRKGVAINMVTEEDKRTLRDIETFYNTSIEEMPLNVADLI
Description: Streptavidin-agarose Pulldown with B-PatA. Cell lysates from RKO cells were prepared as previously described (Griffith et al., 1997). HeLa lysates were prepared in buffer: 10 mM HEPES-OH, pH 7.6, 10 mM KC2H3O2, and 0.5 mM MgC2H3O2. RRL and WGE were diluted about 12 fold using HeLa lysate buffer. All pulldowns included protease inhibitors. Streptavidin-beads were pre-incubated with 10 mg/ml BSA in buffer for 1 h at 4° C. with mixing. Equal aliquots of lysate (200 μl) were incubated with DMSO or PatA analog for 1 h at 4° C. with mixing, followed by addition of DMSO or B-PatA and incubation for 2 h. Each sample was combined with equal amounts of pre-blocked beads and incubated for 1 h at 4° C. Beads were washed with 3 ml of buffer, boiled in SDS-PAGE loading buffer and analyzed by SDS-PAGE and silver-staining or immunoblotting.

SMILES	IC50 (cancer cell lines; all cancer cell lines (FIG. 12), read-out: IC50, inhibition of proliferation) [nM]	effect on eIF4A-eIF4B interaction (eIF4A-eIF4B)	decomposes in CDCl3 (stability in CDCl3) [min]	effect on RNA synthesis [1]	IC50 ([2]; 1 h treatment, read-out: IC50, inhibition of protein synthesis) [nM]	IC50 ([3]; stimulated Jurkat T cells, listed as native pateamine A, read-out: IC50, inhibition of IL-2 production / IL-2 reporter gene) [nM]	IC50 ([3]; stimulated Jurkat T cells, read-out: IC50, inhibition of IL-2 production / IL-2 reporter gene) [nM]	competition with B-PatA for eIF4A binding (eIF4A)	activity in cell proliferation assays (cancer cell lines)	stable in CDCl3 (stability in CDCl3)	effect on protein synthesis [2]	IC50 ([3]; stimulated Jurkat T cells, listed as DMDA PatA 3, read-out: IC50, inhibition of IL-2 production / IL-2 reporter gene) [nM]	IC50 ([3]; stimulated Jurkat T cells, listed as DMDA PatA, read-out: IC50, inhibition of IL-2 production / IL-2 reporter gene) [nM]	IC50 ([3]; transfected Jurkat cells, same population of Jurkat T cells, read-out: IC50) [nM]
CC(/C=C/C(C)=C/[C@@H]1Cc2nc(cs2)[C@@H](C)C[C@@H](N)CC(=O)O[C@@H](C)C/C(C)=C/C=C\C(=O)O1)=C\CN(C)C [Pat A (1), Pateamine A]	< 1	increase in amount of eIF4B observed	< 10	inhibitory effect on RNA synthesis	3.3	4.01 ± 0.94	4 ± 0.9	effectively competed away						
CC(/C=C/C(C)=C/[C@@H]1Cc2nc(cs2)CCCCC(=O)O[C@@H](C)C/C(C)=C/C=C\C(=O)O1)=C\CN(C)C [compound 3, desmethyl, desamino-pateamine A]		enhancement of eIF4A-eIF4B interaction		secondary effect on RNA synthesis				competitive	retain most of the activity of PatA	3-4 weeks	inhibited protein synthesis	0.8 ± 0.3	0.81 ± 0.27	0.808

Reference: US8841285B2, “Potent immunosuppressive agents, derivatives and uses” (priority 2002, dated 2014)
